What was measured:
[1] = test system: Nos2 mRNA; test: Semi-quantitative real-time RT-PCR of Nos2 mRNA in primary astrocytes challenged with MPTP and TNF-α/IFN-γ; type: cell-based, mouse
Description: Primary Cell Isolation. Cortical astrocytes were isolated from day-1 old C57B1/6 or transgenic mouse pups according to procedures described previously (Aschner and Kimelberg, 1991), and purity confirmed through immunofluorescent staining using antibodies against GFAP and Iba1. Briefly, pups were euthanized by decapitation under isofluorane anesthesia and cortices (astrocytes) or striatum (neurons) rapidly dissected out, and meninges removed. Tissue was subject to digestion with Dispase (1.5 U/ml), and selection of astrocytes was performed by complete media change 24 hrs after plating to remove non-astroglial cell types by serum shock. This method routinely results in cultures that are approximately 99% pure astrocytes, with less than 1% contaminating microglial cells (Supplementary FIG. 1). Astrocyte cultures were maintained at 37° C. and 5% CO2 in minimum essential media supplemented with 10% heat-inactivated fetal bovine serum and a penicillin (0.001 mg/ml), streptomycin (0.002 mg/ml), and neomycin (0.001) antibiotic cocktail. Cell media was changed 24 hrs prior to all treatments. Primary neuronal cultures were seeded onto poly-L-lysine-coated 30 mm glass coverslips at 4×10^5 cells per well, and maintained in neurobasal media supplemented with 2 mM L-glutamine, a B27 supplement, and a penicillin (0.001 mg/ml), streptomycin (0.002 mg/ml), and neomycin (0.001) antibiotic cocktail. Neuronal culture media was changed 24 hours after isolation and every two days afterward, and culture purity confirmed through cell morphology and immunostaining against GAD65/67 (Supplementary FIG. 2). Neurons were used within two weeks of plating. All animal procedures were approved by the Colorado State University Institutional Animal Care and Use Committee, and were conducted in accordance with published NIH guidelines.
RT and Real-Time RT-PCR. […] RNA was isolated using the RNEasy Mini kit (Qiagen, Valencia, Calif.), and purity and concentration were determined using a Nanodrop ND 1000 spectrophotometer (NanoDrop Technologies, Wilmington, Del.). Following purification, 1 ug of RNA was used as template for reverse transcriptase (RT) reactions using the iScript RT kit (BioRad, Hercules Calif.). The resulting cDNA was immediately profiled for Nos2 gene expression (forward: 5′-TCACGCTTGGGTCTTGTT-3′ (SEQ ID NO:1); reverse: 5′-[…] -3′3′ (SEQ ID NO:2)) using β-Actin as a housekeeping gene (forward: 5′-[…]-3′3′ (SEQ ID NO:3); reverse: 5′-CGCTCGTTGCCAATACTG-3′3′ (SEQ ID NO:4)) according to the 2^−ΔΔCT method (Livak and Schmittgen, 2001).

[2] = test system: NOS2 protein; test: Immunoblotting of NOS2 protein in astrocytes exposed to MPTP and TNF-α/IFN-γ; type: cell-based, mouse; conditions: FIG. 7(C), concentration not given
Description: Primary Cell Isolation. Cortical astrocytes were isolated from day-1 old C57B1/6 or transgenic mouse pups according to procedures described previously (Aschner and Kimelberg, 1991), and purity confirmed through immunofluorescent staining using antibodies against GFAP and Iba1. Briefly, pups were euthanized by decapitation under isofluorane anesthesia and cortices (astrocytes) or striatum (neurons) rapidly dissected out, and meninges removed. Tissue was subject to digestion with Dispase (1.5 U/ml), and selection of astrocytes was performed by complete media change 24 hrs after plating to remove non-astroglial cell types by serum shock. This method routinely results in cultures that are approximately 99% pure astrocytes, with less than 1% contaminating microglial cells (Supplementary FIG. 1). Astrocyte cultures were maintained at 37° C. and 5% CO2 in minimum essential media supplemented with 10% heat-inactivated fetal bovine serum and a penicillin (0.001 mg/ml), streptomycin (0.002 mg/ml), and neomycin (0.001) antibiotic cocktail. Cell media was changed 24 hrs prior to all treatments. […]
Western Blotting. […] Protein was quantified using the BCA assay (Pierce, Rockford Ill.), and 20 μg of protein were separated by standard SDS-PAGE using a 6% slab gel (BioRad, Hercules Calif.) followed by semi-dry transfer to polyvinylidene fluoride (PVDF) membrane (Pall Corp., Pensacola, Fla.). […]

[3] = test system: primary striatal neurons co-cultured with activated astrocytes; test: Astrocyte-neuron co-culture: apoptosis of primary striatal neurons (caspase activity, Annexin V binding); type: cell-based, mouse; conditions: for Apoptosis in co-cultured striatal neurons (caspase activity and Annexin V-binding): astrocytes co-treated with 10 μM for 8 hours, six hours of co-culture, FIG. 6 C-D
Procedure: Astrocyte Neuron Co-Culture. Cells were isolated as described above and astrocytes grown to confluence on permeable cell culture inserts (BD Biosciences, San Jose, Calif.) prior to treatment. Astrocytes were then treated with MPTP (10 μM), TNF-α (10 pg/ml) and IFN-γ (1 ng/ml) in the presence or absence of DIM-C-pPhtBu (10 μM), Rosiglitazone (10 μM) AMT (25 nM), or DMSO vehicle control for 8 hours. Media was then removed, and the astrocytes washed three times with sterile PBS to prevent carryover of treatment medium to the neurons, and the inserts were placed directly in each well over cultured neurons. Astrocyte-containing inserts were removed following six hours of co-culture, and neuronal caspase activity and phosphatidylserine translocation were measured by widefield fluorescence microscopy using the general cell permeable fluorescent caspase substrate rhodamine 110, bis-(L-aspartic acid amide) and an Annexin V Alexa Fluor 680 conjugate, respectively. Images were acquired using a Zeiss 20× air PlanApochromat objective and at least 10 microscopic fields were examined per treatment group over three independent experiments.
The efficacy of DIM-C-pPhtBu in preventing astrocyte-dependent neuronal apoptosis was examined in FIG. 6. Astrocytes were grown to confluence in cell culture inserts that are permeable to small molecules but prevent direct cell-cell contact. Following treatment of astrocytes with MPTP and TNF-α/IFN-γ in the presence or absence of DIM-C-pPhtBu (10 μM), rosiglitazone (10 μM), the NOS2 inhibitor AMT (25 nM), or DMSO, astrocytes were washed with PBS and co-incubated directly above primary striatal neurons in neurobasal medium. Indices of neuronal apoptosis were then measured using live-cell fluorescence imaging of caspase activity (FIG. 6A) and Annexin V binding (FIG. 6B). […] The DMSO vehicle control had no suppressive effect.
Differing letters denote statistical significance (p<0.05).

[4] = test system: NF-kB-regulated genes; test: qPCR array analysis of NF-kB-regulated transcripts in primary astrocytes; type: cell-based; conditions: astrocytes + MPTP and TNF/IFN; DIM-C-pPhOCH3 1 uM, DIM-C-pPhtBu concentration not given; FIG. 11(A)
Procedure: Expression of inflammatory genes in astrocytes is largely regulated through the NF-kB signaling pathway. Primary cultured astrocytes were treated with MPTP and TNF/IFN in the presence or absence DIM-C-pPhOCH3 (DIMS, 1 uM), DIM-C-pPhtBu (DIM4), rosiglitazone (Ro, 10 uM), or vehicle (DMSO) and subjected to qPCR array analysis of NF-kB-regulated transcripts (Superarray Biosciences). […] (n=4 biological replicates)

[5] = astrocytes + MPTP, TNF-α, IFN-γ, FIG. 7(B), concentration not given
[6] = 10 μM, astrocytes + MPTP, TNF-α/IFN-γ, FIG. 2B

`COc1ccc(C(c2c[nH]c3ccccc23)c2c[nH]c3ccccc23)cc1` [DIM-C-pPhOCH3, 1,1-bis(3′-indolyl)-1-(p-methoxyphenyl)methane] was tested, and the “Suppression of Nos2 mRNA” value [1, 5] was “equivalent suppression of Nos2 mRNA”, the “Suppression of Nos2 mRNA, dose response” value ([1]; concentrations ranging from 0.1 to 3 μM, astrocytes + MPTP, TNF-α, IFN-γ, FIG. 7(A)) was “dose-responsive suppression” and the “Suppression of NOS2 protein expression” value [2] was “suppression of NOS2 protein expression”. For the same compound, the “Annexin V binding in neurons increased by MPTP and cytokine treatment” value ([3]; 1 uM on astrocytes for 24 hrs, then 6 hrs with primary striatal neurons, FIG. 10(A)) was “inhibited”, the “Activation of astrocytes and subsequent neuronal apoptosis (quantitative Annexin V fluorescence)” value ([3]; 1 uM on astrocytes for 24 hrs, then 6 hrs with primary striatal neurons, FIG. 10(B)) was “significantly reduced” and the “Neuroinflammatory gene expression (TNF Receptor, Toll Receptor, Interleukin 1beta)” value [4] was “suppressed neuroinflammatory gene expression”.

In the case of `CC(C)(C)c1ccc(C(c2c[nH]c3ccccc23)c2c[nH]c3ccccc23)cc1` [DIM-C-pPhtBu, 1,1-bis(3′-indolyl)-1-(p-t-butylphenyl)methane], the “Suppression of Nos2 mRNA” value [1, 6] is reported as “equivalent suppression of Nos2 to levels observed in saline-treated control astrocytes”, the “Lowest dose that suppressed Nos2 induction to levels statistically indistinguishable from saline-treated control astrocytes” value ([1]; primary astrocytes, MPTP + TNF-α/IFN-γ) is reported as 10 µM and the “Suppression of MPTP and TNF-α/IFN-γ induced Nos2 mRNA expression, dose response” value ([1]; primary astrocytes, concentrations ranging from 1 to 100 μM, FIG. 2A) is reported as “dose-dependently suppressed”. For the same compound, the “Apoptosis in co-cultured striatal neurons (caspase activity and Annexin V-binding)” value [3] was “prevented” and the “Neuroinflammatory gene expression (TNF Receptor, Toll Receptor, Interleukin 1beta)” value [4] was “suppressed neuroinflammatory gene expression”.

For `CN(CCOc1ccc(CC2SC(=O)NC2=O)cc1)c1ccccn1` (stereo not drawn) [rosiglitazone, 5-((4-(2-(methyl-2-pyridinylamino)ethoxy)phenyl)methyl)-2,4-thiazolidinedione, reference compound], the “Suppression of Nos2 mRNA” value [1, 6] was “equivalent suppression of Nos2 to levels observed in saline-treated control astrocytes”, the “Suppression of Nos2 mRNA” value [1, 5] was “equivalent suppression of Nos2 mRNA” and the “Suppression of NOS2 protein expression” value [2] was “suppression of NOS2 protein expression”. For the same compound, the “Apoptosis in co-cultured striatal neurons (caspase activity and Annexin V-binding)” value [3] was “prevented”.
